Results: PMC5428509, “Irreversible inhibition of BTK kinase by a novel highly selective inhibitor CHMFL-BTK-11 suppresses inflammatory response in rheumatoid arthritis model” (Scientific Reports, 2017)

Tests used:
Test in all cases: biochemical
Design in all cases: KinomeScan competition binding panel (DiscoveRx), percent of control at 1 uM
Conditions in all cases: read-out: Percent Control
[1] = biological target: T1, ADCK3 (Homo sapiens, UniProt Q8NI60)
T1 construct: gene COQ8A
How it was run: (§1)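 Selectivity profiled across 456 kinases/mutants by KinomeScan binding technology.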

[2] = biological target: T2, ARK5 (Homo sapiens, UniProt O60285)
T2 construct: gene NUAK1
How it was run: as §1

[3] = biological target: BUB1 (Homo sapiens, UniProt O43683)
How it was run: as §1

[4] = biological target: EPHB2 (Homo sapiens, UniProt P29323)
How it was run: as §1

[5] = biological target: T3, ERK3 (Homo sapiens, UniProt Q16659)
T3 construct: gene MAPK6
How it was run: as §1

[6] = biological target: T4, FAK (Homo sapiens, UniProt Q05397)
T4 construct: gene PTK2
How it was run: as §1

[7] = biological target: FLT3(D835H) (Homo sapiens, UniProt P36888, D835H)
How it was run: as §1

[8] = biological target: FLT3(ITD) (Homo sapiens, UniProt P36888, ITD)
How it was run: as §1

[9] = biological target: T5, IKK-epsilon (Homo sapiens, UniProt Q14164)
T5 construct: gene IKBKE
How it was run: as §1

[10] = biological target: T6, LKB1 (Homo sapiens, UniProt Q15831)
T6 construct: gene STK11
How it was run: as §1

[11] = biological target: T7, LZK (Homo sapiens, UniProt O43283)
T7 construct: gene MAP3K13
How it was run: as §1

[12] = biological target: MAP4K5 (Homo sapiens, UniProt Q9Y4K4)
How it was run: as §1

[13] = biological target: MARK4 (Homo sapiens, UniProt Q96L34)
How it was run: as §1

[14] = biological target: T8, MST1 (Homo sapiens, UniProt Q13043)
T8 construct: gene STK4
How it was run: as §1

[15] = biological target: MST1R (Homo sapiens, UniProt Q04912)
How it was run: as §1

[16] = biological target: MYLK4 (Homo sapiens, UniProt Q86YV6)
How it was run: as §1

[17] = biological target: NEK6 (Homo sapiens, UniProt Q9HC98)
How it was run: as §1

[18] = biological target: T9, PFTAIRE2 (Homo sapiens, UniProt Q96Q40)
T9 construct: gene CDK15
How it was run: as §1

[19] = biological target: PIK3C2G (Homo sapiens, UniProt O75747)
How it was run: as §1

[20] = biological target: PIK3CA(H1047L) (Homo sapiens, UniProt P42336, H1047L)
How it was run: as §1

[21] = biological target: PKN2 (Homo sapiens, UniProt Q16513)
How it was run: as §1

[22] = biological target: RAF1 (Homo sapiens, UniProt P04049)
How it was run: as §1

[23] = biological target: RIOK2 (Homo sapiens, UniProt Q9BVS4)
How it was run: as §1

[24] = biological target: T10, RSK4(Kin.Dom.2-C-terminal) (Homo sapiens, UniProt Q9UK32)
T10 construct: gene RPS6KA6; Kin.Dom.2-C-terminal
How it was run: as §1

[25] = biological target: SGK3 (Homo sapiens, UniProt Q96BR1)
How it was run: as §1

T3 sequence (Q16659 whole entry): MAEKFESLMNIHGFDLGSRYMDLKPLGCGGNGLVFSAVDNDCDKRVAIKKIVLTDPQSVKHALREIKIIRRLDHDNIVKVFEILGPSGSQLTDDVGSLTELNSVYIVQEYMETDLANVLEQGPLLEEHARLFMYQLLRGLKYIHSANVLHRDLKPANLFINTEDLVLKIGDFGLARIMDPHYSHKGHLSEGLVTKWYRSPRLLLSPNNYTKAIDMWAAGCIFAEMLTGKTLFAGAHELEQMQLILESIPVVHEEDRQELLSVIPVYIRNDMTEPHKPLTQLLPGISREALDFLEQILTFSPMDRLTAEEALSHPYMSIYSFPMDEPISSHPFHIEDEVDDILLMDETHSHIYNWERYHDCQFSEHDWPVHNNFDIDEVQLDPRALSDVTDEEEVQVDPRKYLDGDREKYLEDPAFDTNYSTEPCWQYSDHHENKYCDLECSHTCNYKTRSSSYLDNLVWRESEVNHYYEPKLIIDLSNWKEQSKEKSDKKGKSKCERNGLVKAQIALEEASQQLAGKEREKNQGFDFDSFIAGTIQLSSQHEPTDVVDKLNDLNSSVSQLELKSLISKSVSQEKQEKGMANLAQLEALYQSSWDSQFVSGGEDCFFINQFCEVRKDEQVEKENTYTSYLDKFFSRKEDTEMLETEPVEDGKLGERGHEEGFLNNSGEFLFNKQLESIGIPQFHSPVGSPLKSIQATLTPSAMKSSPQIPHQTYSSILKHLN
RIOK2, sequence (Q9BVS4 whole entry): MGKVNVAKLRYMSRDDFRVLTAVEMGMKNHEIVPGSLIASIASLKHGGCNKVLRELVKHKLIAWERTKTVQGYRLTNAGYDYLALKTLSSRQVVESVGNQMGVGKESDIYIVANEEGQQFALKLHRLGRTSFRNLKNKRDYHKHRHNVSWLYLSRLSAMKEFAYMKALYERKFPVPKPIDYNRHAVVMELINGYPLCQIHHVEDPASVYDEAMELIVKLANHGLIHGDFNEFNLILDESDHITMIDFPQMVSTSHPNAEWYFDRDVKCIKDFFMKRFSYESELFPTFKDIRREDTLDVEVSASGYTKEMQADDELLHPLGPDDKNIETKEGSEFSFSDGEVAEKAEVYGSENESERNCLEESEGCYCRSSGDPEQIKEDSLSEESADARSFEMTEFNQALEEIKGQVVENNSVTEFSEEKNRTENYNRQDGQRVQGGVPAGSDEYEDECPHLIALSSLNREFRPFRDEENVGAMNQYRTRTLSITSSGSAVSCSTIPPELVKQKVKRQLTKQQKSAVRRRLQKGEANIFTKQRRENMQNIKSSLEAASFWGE
T9 sequence (Q96Q40 whole entry): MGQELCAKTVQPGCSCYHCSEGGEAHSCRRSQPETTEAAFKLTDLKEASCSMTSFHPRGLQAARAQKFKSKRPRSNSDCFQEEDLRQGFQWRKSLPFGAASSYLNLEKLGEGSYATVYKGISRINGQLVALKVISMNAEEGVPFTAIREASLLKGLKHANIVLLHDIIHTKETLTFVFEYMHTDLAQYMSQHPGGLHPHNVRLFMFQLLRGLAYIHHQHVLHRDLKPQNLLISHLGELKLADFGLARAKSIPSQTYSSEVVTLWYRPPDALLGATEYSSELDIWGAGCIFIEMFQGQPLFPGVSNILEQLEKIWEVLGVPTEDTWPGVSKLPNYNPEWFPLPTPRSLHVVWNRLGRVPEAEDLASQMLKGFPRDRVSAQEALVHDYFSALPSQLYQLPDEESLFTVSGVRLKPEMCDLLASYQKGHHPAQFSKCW
EPHB2, sequence (P29323 whole entry): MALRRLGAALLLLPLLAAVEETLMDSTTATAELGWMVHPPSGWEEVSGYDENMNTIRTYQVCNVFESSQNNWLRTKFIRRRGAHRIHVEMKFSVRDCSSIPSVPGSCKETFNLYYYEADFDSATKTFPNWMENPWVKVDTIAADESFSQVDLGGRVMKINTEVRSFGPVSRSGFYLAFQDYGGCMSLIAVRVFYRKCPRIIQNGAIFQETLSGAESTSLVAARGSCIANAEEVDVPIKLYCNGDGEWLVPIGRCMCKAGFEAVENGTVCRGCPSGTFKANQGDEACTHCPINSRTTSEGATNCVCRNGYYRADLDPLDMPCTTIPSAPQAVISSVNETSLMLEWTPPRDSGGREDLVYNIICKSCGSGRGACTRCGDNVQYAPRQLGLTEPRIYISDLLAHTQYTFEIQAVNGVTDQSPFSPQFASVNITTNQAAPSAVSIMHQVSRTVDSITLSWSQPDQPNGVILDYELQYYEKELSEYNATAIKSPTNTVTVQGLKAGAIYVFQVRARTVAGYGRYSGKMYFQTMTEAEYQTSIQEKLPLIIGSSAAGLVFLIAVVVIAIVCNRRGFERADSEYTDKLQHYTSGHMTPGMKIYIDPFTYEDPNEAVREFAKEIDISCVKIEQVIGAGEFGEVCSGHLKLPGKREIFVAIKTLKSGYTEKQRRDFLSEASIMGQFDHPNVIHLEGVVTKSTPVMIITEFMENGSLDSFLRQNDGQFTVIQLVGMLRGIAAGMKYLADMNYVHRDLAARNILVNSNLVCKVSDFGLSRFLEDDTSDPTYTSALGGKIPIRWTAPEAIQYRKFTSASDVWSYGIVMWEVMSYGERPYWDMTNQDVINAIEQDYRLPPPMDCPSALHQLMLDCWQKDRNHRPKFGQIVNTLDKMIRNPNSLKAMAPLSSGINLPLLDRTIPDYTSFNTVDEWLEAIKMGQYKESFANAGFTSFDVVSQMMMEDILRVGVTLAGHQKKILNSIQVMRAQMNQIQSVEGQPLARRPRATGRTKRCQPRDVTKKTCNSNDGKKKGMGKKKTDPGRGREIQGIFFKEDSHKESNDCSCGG
T2 sequence (O60285 whole entry): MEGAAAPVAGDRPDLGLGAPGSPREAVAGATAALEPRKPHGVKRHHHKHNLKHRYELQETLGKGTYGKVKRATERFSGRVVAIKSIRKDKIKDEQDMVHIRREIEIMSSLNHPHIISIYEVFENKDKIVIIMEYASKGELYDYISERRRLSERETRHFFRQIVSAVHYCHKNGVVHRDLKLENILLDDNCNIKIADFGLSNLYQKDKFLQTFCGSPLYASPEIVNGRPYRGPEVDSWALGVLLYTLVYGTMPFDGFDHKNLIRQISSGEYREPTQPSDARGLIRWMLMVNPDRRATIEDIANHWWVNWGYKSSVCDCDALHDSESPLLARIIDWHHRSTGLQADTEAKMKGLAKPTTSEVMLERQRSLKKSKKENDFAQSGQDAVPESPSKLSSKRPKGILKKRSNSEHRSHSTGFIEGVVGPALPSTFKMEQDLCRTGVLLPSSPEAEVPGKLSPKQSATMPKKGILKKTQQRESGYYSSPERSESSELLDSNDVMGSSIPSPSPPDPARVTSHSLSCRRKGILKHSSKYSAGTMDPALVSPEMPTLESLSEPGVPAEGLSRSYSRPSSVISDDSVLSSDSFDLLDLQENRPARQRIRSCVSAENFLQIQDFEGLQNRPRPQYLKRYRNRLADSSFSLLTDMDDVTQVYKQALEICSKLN
PKN2, sequence (Q16513 whole entry): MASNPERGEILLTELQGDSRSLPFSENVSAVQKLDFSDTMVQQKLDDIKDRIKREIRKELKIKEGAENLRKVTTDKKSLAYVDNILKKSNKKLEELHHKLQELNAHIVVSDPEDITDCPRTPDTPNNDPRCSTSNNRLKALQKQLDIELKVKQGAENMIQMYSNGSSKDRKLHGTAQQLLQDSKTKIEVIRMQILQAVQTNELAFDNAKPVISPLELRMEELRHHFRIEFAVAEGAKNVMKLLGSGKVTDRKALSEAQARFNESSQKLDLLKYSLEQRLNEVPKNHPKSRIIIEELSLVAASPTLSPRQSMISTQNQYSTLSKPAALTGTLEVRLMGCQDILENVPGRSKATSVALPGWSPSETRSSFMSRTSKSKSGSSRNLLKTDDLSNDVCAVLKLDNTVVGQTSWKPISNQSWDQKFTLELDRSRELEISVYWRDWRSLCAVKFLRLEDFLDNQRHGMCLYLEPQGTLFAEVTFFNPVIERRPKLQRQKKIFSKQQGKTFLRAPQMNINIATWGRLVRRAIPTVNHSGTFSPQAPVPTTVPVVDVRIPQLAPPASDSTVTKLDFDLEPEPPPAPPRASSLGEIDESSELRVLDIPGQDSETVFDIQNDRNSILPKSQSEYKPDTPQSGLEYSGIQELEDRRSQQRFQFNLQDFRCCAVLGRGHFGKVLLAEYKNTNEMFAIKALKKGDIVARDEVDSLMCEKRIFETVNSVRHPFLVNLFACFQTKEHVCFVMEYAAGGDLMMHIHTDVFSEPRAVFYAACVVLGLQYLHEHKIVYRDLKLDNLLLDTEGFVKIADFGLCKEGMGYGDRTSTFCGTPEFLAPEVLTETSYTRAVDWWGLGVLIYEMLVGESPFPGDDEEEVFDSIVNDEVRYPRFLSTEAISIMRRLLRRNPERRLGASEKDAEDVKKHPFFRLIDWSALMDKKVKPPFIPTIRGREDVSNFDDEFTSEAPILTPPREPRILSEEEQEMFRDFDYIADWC
T6 sequence (Q15831 whole entry): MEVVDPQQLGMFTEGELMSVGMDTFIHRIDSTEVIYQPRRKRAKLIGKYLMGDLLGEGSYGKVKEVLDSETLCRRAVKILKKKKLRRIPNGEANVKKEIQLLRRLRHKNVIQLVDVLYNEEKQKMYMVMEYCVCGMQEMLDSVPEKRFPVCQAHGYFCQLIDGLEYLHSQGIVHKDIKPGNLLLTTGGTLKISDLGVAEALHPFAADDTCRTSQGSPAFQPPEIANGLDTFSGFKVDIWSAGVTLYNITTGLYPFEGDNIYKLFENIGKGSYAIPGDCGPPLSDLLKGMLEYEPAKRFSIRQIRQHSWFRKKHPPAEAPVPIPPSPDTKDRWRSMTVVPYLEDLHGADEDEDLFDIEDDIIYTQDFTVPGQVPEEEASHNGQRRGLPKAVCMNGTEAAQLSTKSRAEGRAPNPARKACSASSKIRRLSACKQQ

With `C=CC(=O)Nc1cc(-n2c(=O)ccc3cnc4ccc(-n5cccn5)cc4c32)ccc1C` [CHMFL-BTK-11] the remaining binding at 1 µM [1] was 96%, the remaining binding at 1 µM [2] was 100% and the remaining binding at 1 µM [3] was 83%. The remaining binding at 1 µM [4] was 89%, the remaining binding at 1 µM [5] was 100% and the remaining binding at 1 µM [6] was 100%. The remaining binding at 1 µM [7] was 100%, the remaining binding at 1 µM [8] was 89% and the remaining binding at 1 µM [9] was 96%. It also gave a remaining binding at 1 µM [10] of 91%, a remaining binding at 1 µM [11] of 100% and a remaining binding at 1 µM [12] of 100%. For the same compound, the remaining binding at 1 µM [13] was 79%, the remaining binding at 1 µM [14] was 100% and the remaining binding at 1 µM [15] was 98%. It also gave a remaining binding at 1 µM [16] of 100%, a remaining binding at 1 µM [17] of 100% and a remaining binding at 1 µM [18] of 100%. The remaining binding at 1 µM [19] was 95%, the remaining binding at 1 µM [20] was 85% and the remaining binding at 1 µM [21] was 100%. It also gave a remaining binding at 1 µM [22] of 100%, a remaining binding at 1 µM [23] of 87% and a remaining binding at 1 µM [24] of 100%. It also gave a remaining binding at 1 µM [25] of 86%.
